Source: article PMC9090717, “Fullerenemalonates inhibit amyloid beta aggregation, in vitro and in silico evaluation” (RSC Advances, 2018)
“And” between values parts separate entries of the source, which are not always exact repeats. Equal values may be shown once. Read-outs that look alike come from different tables or passages of the source.

Assays:
[1] = tested on: Aβ42; details: cited from earlier work
[2] = tested on: SH-SY5Y neuroblastoma cells; details: human, 24 h, 13 μM
Experimental: (§1) The neuroblastoma cell lines SH-SY5Y (ATCC) were grown in 25 cm^2 flasks at 37 °C with 5% CO2 in advanced DMEM/F-12 medium (Sigma-Aldrich), supplemented with 10% fetal bovine serum (Invitrogen); for cytotoxicity assay, cells were seeded at a density of 1 × 10^4 in triplicate per sample in a 96 well microplate 24 h before the treatment. The fullerenemalonates were incubated for 24 h at the corresponding concentration for their ability to inhibit Aβ42 aggregation, 13 μM. Likewise, the vehicles of each fullerenemalonate other than water (acetonitrile and ethanol) were assessed to validate its toxicity. The cell viability assay was evaluated using Thiazolyl Blue Tetrazolium Bromide (MTT, Sigma-Aldrich); based on the conversion of MTT to water-insoluble MTT-formazan of dark blue color by the mitochondrial dehydrogenases of living cells. The absorbance of formazan was measured at a wavelength of 570 nm in a plate reader, iMark Biorad. For a cytotoxic concentration (CC50) the fullerenemalonates were incubated at different concentrations followed by a cell viability assay. The CC50 was determined from the curves obtained by fitting the average absorbance values in three independent experiments in the 10–80 μM fullerenemalonate concentration range.

[3] = set-up: method as in PMID 16853553; details: aqueous solution; cited from earlier work
[4] = tested on: SH-SY5Y neuroblastoma cells; experiment: MTT cell viability assay; details: 13 μM, 24 h, normalized to control
Experimental: as §1

For 1,2-(dimethoxymethano) fullerene, the IC50 ([1]; Aβ42 concentration 20 μM, read-out: IC50, inhibition of Aβ peptide aggregation) is listed as roughly 9 µM.

In the case of `CCOC(=O)C1(C(=O)OCC)C23c4c5c6c7c8c4-c4c2c2c9c%10c%11c%12c(c-5c5c%13c%14c%15c%16c%17c(c-7c7c%18c%19c%20c%21c(c4C%204C(C(=O)OCC)(C(=O)OCC)C874)c2c2c9c4c%11c7c(c%13%12)c%14c8c%16c9c(c%18%17)c%19c%11c%21c2c2c4c7c8c9c%112)C%152C(C(=O)OCC)(C(=O)OCC)C652)C%1013` (stereo not drawn) [C3-C63(COOEt)6], the “Cell survival rate (%)” value [2] is reported as 78.59 ± 0.22%.

In the case of `CCOC(=O)C1(C(=O)OCC)C23c4c5c6c7c8c9c(c%10c%11c2c2c4c4c%12c5c5c6c6c8c8c%13c9c9c%10c%10c%11c%11c2c2c4c4c%12c%12c5c5c6c8c6c8c%13c9c9c%10c%10c%11c2c2c4c4c%12c5c6c5c8c9c%10c2c45)C713` [C61(COOEt)2], the “Cell survival rate (%)” value [2] is reported as 65.65 ± 0.29%.

In the case of `O=C([O-])C1(C(=O)[O-])C23c4c5c6c7c8c9c(c%10c%11c2c2c4c4c%12c5c5c6c6c8c8c%13c9c9c%10c%10c%11c%11c2c2c4c4c%12c%12c5c5c6c8c6c8c%13c9c9c%10c%10c%11c2c2c4c4c%12c5c6c5c8c9c%10c2c45)C713.[Na+].[Na+]` [C61(COONa)2], the “Average hydrodynamic radius Rh of self-assembled particles” value [3] is given as “≈ 32 nm” and the “Cell survival rate (%)” value [4] is given as 64% and 64.34 ± 0.30%.

In the case of sodium fullerenolate, the “Anti-amyloid activity in Aβ42” value [1] is listed as “strong anti-amyloid activity”.
